{"source": "patent US12240862B2", "about": "“Inhibitors of peptidylarginine deiminases” (Gilead Sciences, Inc., priority 2020, dated 2025)", "note": "pIC50: −log10 of the molar value."}
{"target": "T1, human PAD4 (Homo sapiens, UniProt Q9UM07)", "T1 construct": "human PAD4 (NM_012387), A2P663, was PCR amplified; His-SUMO (N, cleaved yes); made in house; host or cells: E. coli BL21(DE3)", "T1 sequence (Q9UM07 2-663)": "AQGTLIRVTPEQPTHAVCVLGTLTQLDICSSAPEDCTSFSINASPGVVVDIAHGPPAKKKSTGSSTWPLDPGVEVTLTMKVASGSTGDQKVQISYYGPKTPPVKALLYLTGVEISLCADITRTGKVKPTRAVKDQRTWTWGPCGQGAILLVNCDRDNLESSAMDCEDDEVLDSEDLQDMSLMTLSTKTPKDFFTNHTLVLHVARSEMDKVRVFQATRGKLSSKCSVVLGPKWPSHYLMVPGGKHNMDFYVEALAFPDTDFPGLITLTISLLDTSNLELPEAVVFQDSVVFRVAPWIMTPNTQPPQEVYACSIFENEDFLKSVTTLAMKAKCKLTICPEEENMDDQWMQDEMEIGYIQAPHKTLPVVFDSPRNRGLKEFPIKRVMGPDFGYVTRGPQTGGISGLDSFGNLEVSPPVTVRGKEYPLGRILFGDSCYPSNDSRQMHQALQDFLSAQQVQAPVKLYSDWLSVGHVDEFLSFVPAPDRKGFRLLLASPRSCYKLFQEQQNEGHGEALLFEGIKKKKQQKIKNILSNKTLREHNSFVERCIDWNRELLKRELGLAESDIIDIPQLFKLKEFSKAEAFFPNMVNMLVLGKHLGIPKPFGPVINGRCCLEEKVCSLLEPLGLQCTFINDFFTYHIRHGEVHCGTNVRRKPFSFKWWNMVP", "experiment": "In vitro PAD4 BAEE biochemical assay", "settings": "human PAD4, BAEE substrate; 5 nM PAD4, 2 mM calcium chloride, 3 mM BAEE; geometric mean of multiple experiments", "experimental": "The PCR product was ligated into linearized pET-SUMO vector (Invitrogen, Carlsbad, CA), which is part of the Champion™ pET SUMO Protein Expression System. After sequence verification for the correct orientation, the pET-SUMO-hPAD4 expression plasmid was transformed into BL21(DE3) cells.\nE. Coli BL21(DE3) cells were inoculated in LB medium with kanamycin at 37° C. until A600 nm reached about 0.5. Protein expression was induced by addition of 0.5 mM IPTG (final) and continued overnight at 16° C. at 220 rpm.\nCells were harvested by centrifugation at 5000 rpm for 10 minutes at 4° C. The pellet was resuspended in 300 ml lysis buffer (20 mM Tris-HCl, pH 8.0, 1 mM EDTA, 500 mM NaCl, 1 mM (tris(2-carboxyethyl)phosphine) (TCEP), 10% glycerol, and 1% Triton X100 and EDTA free protease inhibitor) and lysed by 3× passage through a microfluidizer (Microfluidics, Newton, MA) at 18,000 psi. The cell lysate was clarified by centrifugation at 30,000 rpm for 60 minutes at 4° C. […] Bound protein was eluted with a 0-100% linear gradient of 100 mL Ni-B buffer (Ni A buffer+0.5 M Imidazole).\nThe protein was then reloaded onto a Ni—HP column for a reverse purification step and recovered in flow through fraction. The protein with His-Sumo tag removed was then polished using a 16/60 Superdex-200 gel filtration column with gel filtration buffer (20 mM Tris pH 8.0, NaCl 400 mM and 1 mM TCEP). The fractions containing the protein were pulled and frozen at −80° C.\nThe enzymatic activity of human PAD4 was monitored in a biochemical assay in the presence or absence of compounds using the small peptidyl arginine mimic BAEE (Na-Benzoyl-L-arginine ethyl ester hydrochloride) as substrate. PAD4 activity led to deamination of BAEE and release of ammonia. Levels of ammonia were monitored by using an amine coupling reaction and were indicative of PAD4 enzymatic activity.\nOne hundred nanoliters of test compounds dissolved in DMSO at various concentrations were dispensed into a 384-well black OptiPlate using a Labcyte Echo instrument. Ten microliters of a solution of recombinant PAD4 and calcium chloride diluted in PAD4 assay buffer (50 mM MOPS [3-(N-morpholino) propanesulfonic acid], pH 7.6; 50 mM sodium chloride; 0.05% Tween-20; 2 mM dithiothreitol) was added to the compound-containing plate and was incubated for 30 minutes at 25° C. Ten microliters of a solution of BAEE (Sigma-Aldrich #B4500) diluted in PAD4 assay buffer was then added to start the reaction. Final concentrations were 5 nM PAD4, 2 mM calcium chloride, and 3 mM BAEE. The reaction mixture was incubated at 25° C. for 2 hours and was stopped with the addition of 10 microliters of a solution of 75 mM EDTA (Ethylenediaminetetraacetic acid) in PAD4 assay buffer. Thirty microliters of detection solution (5 mM o-phthalaldehyde, 50 mM MOPS [3-(N-morpholino) propanesulfonic acid], pH 7.6; 50 mM sodium chloride; 0.05% Tween-20; 5 mM dithiothreitol) was then added and the reaction was incubated for 1 hour at 25° C."}
{"smiles": "COc1cc(C(=O)N2CCC[C@@H](N)C2)cc2nc(-c3cc4ccc(N(C(F)F)S(C)(=O)=O)nc4n3CC3CC3)c(CC(C)C)n12", "note": "[Example 430, ~{N}-[2-[7-[(3~{R})-3-aminopiperidine-1-carbonyl]-5-methoxy-3-(2-methylpropyl)imidazo [1,2-a]pyridin-2-yl]-1-(cyclopropylmethyl)pyrrolo [2,3-b]pyridin-6-yl]-~{N}-(difluoromethyl) methanesulfonamide]", "pIC50": 6.03}
{"smiles": "COc1cc(C(=O)N2CCC[C@@H](N)C2)cc2nc(-c3cc4ccc(OC5CCN(C)C5=O)nc4n3CC3CC3)c(C)n12", "note": "(some centres unmarked) [Example 623, 3-[2-[7-[(3~{R})-3-aminopiperidine-1-carbonyl]-5-methoxy-3-methylimidazo[1,2-a]pyridin-2-yl]-1-(cyclopropylmethyl)pyrrolo [2,3-b]pyridin-6-yl]oxy-1-methylpyrrolidin-2-one]", "pIC50": 6.88}
{"smiles": "COc1cc(C(=O)N2[C@H]3CC[C@@H]2[C@H](N)C3)cc2nc(-c3cc4ccc([C@@H](C)NC(=O)c5ccc(Cl)nc5)nc4n3CC3CC3)c(C)n12", "note": "[Example 48, ~{N}-[(1~{R})-1-[2-[7-[(1~{R},2~{R},4~{S})-2-amino-7-azabicyclo[2.2.1]heptane-7-carbonyl]-5-methoxy-3-methylimidazo [1,2-a]pyridin-2-yl]-1-(cyclopropylmethyl)pyrrolo[2,3-b]pyridin-6-yl]ethyl]-6-chloropyridine-3-carboxamide]", "pIC50": 7.46}
{"smiles": "COc1cc(C(=O)N2CCC[C@@H](N)C2)cc2nc(-c3cc4ccc(OCC(N)=O)nc4n3CC3CC3)c(C)n12", "note": "[Example 621, 2-[2-[7-[(3~{R})-3-aminopiperidine-1-carbonyl]-5-methoxy-3-methylimidazo[1,2-a]pyridin-2-yl]-1-(cyclopropylmethyl)pyrrolo [2,3-b]pyridin-6-yl]oxyacetamide]", "pIC50": 5.99}
{"smiles": "COc1cc(C(=O)N2[C@H]3CC[C@@H]2[C@H](N)C3)cc2nc(-c3cc4ccc([C@@H](C)NC(=O)N5CCC(F)(F)CC5)nc4n3CC3CC3)c(C)n12", "note": "[Example 207, ~{N}-[(1~{R})-1-[2-[7-[(1~{R},2~{R},4~{S})-2-amino-7-azabicyclo[2.2.1]heptane-7-carbonyl]-5-methoxy-3-methylimidazo [1,2-a]pyridin-2-yl]-1-(cyclopropylmethyl)pyrrolo [2,3-b]pyridin-6-yl]ethyl]-4,4-difluoropiperidine-1-carboxamide]", "pIC50": 7.34}
{"smiles": "CCc1c(-c2cc3ccc(N(C(F)F)S(C)(=O)=O)nc3n2CC2CC2)nc2cc(C(=O)N3CC[C@H](O)[C@H](N)C3)cc(OC)n12", "note": "[Example 404, ~{N}-[2-[7-[(3~{R},4~{S})-3-amino-4-hydroxypiperidine-1-carbonyl]-3-ethyl-5-methoxyimidazo[1,2-a]pyridin-2-yl]-1-(cyclopropylmethyl)pyrrolo [2,3-b]pyridin-6-yl]-~{N}-(difluoromethyl) methanesulfonamide]", "pIC50": 4.97}
{"smiles": "COc1cc(C(=O)N2CCC[C@@H](N)[C@H]2C)cc2nc(-c3cc4ccc(N(C)S(C)(=O)=O)nc4n3CC3CC3)c(C)n12", "note": "[Example 480, ~{N}-[2-[7-[(2~{R}, 3~{R})-3-amino-2-methylpiperidine-1-carbonyl]-5-methoxy-3-methylimidazo[1,2-a]pyridin-2-yl]-1-(cyclopropylmethyl)pyrrolo [2,3-b]pyridin-6-yl]-~{N}-methylmethanesulfonamide]", "pIC50": 6.78}
{"smiles": "COc1cc(C(=O)N2C[C@H]3CC[C@@H]2[C@H](N)C3)cc2nc(-c3cc4ccc(N(C(F)F)S(C)(=O)=O)nc4n3CC3CC3)c(C)n12", "note": "(single isomer, unassigned) [Example 369, ~{N}-[2-[7-[(1~{S},4~{R}, 6~{R})-6-amino-2-azabicyclo[2.2.2]octane-2-carbonyl]-5-methoxy-3-methylimidazo[1,2-a]pyridin-2-yl]-1-(cyclopropylmethyl)pyrrolo [2,3-b]pyridin-6-yl]-~{N}-(difluoromethyl) methanesulfonamide]", "pIC50": 4.87}
{"smiles": "COc1cc(C(=O)N2[C@@H]3CC[C@@H](N)[C@H]2CC3)cc2nc(-c3cc4ccc(N(C(F)F)S(C)(=O)=O)nc4n3CC(F)(F)F)c(C)n12", "note": "[Example 495, ~{N}-[2-[7-[(1~{R},2~{R}, 5~{R})-2-amino-8-azabicyclo[3.2.1]octane-8-carbonyl]-5-methoxy-3-methylimidazo[1,2-a]pyridin-2-yl]-1-(2,2,2-trifluoroethyl)pyrrolo [2,3-b]pyridin-6-yl]-~{N}-(difluoromethyl) methanesulfonamide]", "pIC50": 6.69}
{"smiles": "COc1cc(C(=O)N2[C@H]3CC[C@@H]2[C@H](N)C3)cc2nc(-c3cc4ccc([C@@H](C)NC(=O)N5CC(C(=O)O)C5)nc4n3CC3CC3)c(C)n12", "note": "[Example 237]", "pIC50": 7.45}
{"smiles": "COc1cc(C(=O)N2[C@H]3CC[C@@H]2[C@H](N)C3)cc2nc(-c3cc4ccc([C@@H](C)Nc5cccc(Cl)n5)nc4n3CC3CC3)c(C)n12", "note": "[Example 262, [(1~{R},2~{R},4~{S})-2-amino-7-azabicyclo [2.2.1]heptan-7-yl]-[2-[6-[(1~{R})-1-[(6-chloropyridin-2-yl)amino]ethyl]-1-(cyclopropylmethyl)pyrrolo[2,3-b]pyridin-2-yl]-5-methoxy-3-methylimidazo[1,2-a]pyridin-7-yl]methanone]", "pIC50": 6.06}
{"smiles": "COc1cc(C(=O)N2[C@H]3CC[C@@H]2[C@H](N)C3)cc2nc(-c3cc4ccc([C@@H](C)NC(=O)c5cnco5)nc4n3CC3CC3)c(C)n12", "note": "[Example 117, ~{N}-[(1~{R})-1-[2-[7-[(1~{R},2~{R},4~{S})-2-amino-7-azabicyclo[2.2.1]heptane-7-carbonyl]-5-methoxy-3-methylimidazo [1,2-a]pyridin-2-yl]-1-(cyclopropylmethyl)pyrrolo [2,3-b]pyridin-6-yl]ethyl]-1,3-oxazole-5-carboxamide]", "pIC50": 7.48}
{"smiles": "COc1cc(C(=O)N2[C@H]3CC[C@@H]2[C@H](N)C3)cc2nc(-c3cc4ccc([C@@H](C)NC(=O)N5CC(C(F)F)C5)nc4n3CC3CC3)c(C)n12", "note": "[Example 206, ~{N}-[(1~{R})-1-[2-[7-[(1~{R},2~{R},4~{S})-2-amino-7-azabicyclo[2.2.1]heptane-7-carbonyl]-5-methoxy-3-methylimidazo [1,2-a]pyridin-2-yl]-1-(cyclopropylmethyl)pyrrolo [2,3-b]pyridin-6-yl]ethyl]-3-(difluoromethyl)azetidine-1-carboxamide]", "pIC50": 7.42}
{"smiles": "CCc1ccc2cc(-c3nc4cc(C(=O)N5[C@H]6CC[C@@H]5[C@H](N)C6)cc(OC)n4c3C)n(C[C@@H]3C[C@@H]3C(F)(F)F)c2n1", "note": "[Example 501]", "pIC50": 6.08}
{"smiles": "COc1cc(C(=O)N2[C@H]3CC[C@@H]2[C@H](N)C3)cc2nc(-c3cc4ccc([C@@H](C)NC(=O)N5CCO[C@H](C)C5)nc4n3CC3CC3)c(C)n12", "note": "[Example 210, (2~{R})-~{N}-[(1~{R})-1-[2-[7-[(1~{R},2~{R}, 4~{S})-2-amino-7-azabicyclo[2.2.1]heptane-7-carbonyl]-5-methoxy-3-methylimidazo [1,2-a]pyridin-2-yl]-1-(cyclopropylmethyl)pyrrolo [2,3-b]pyridin-6-yl]ethyl]-2-methylmorpholine-4-carboxamide]", "pIC50": 7.40}
{"smiles": "COc1cc(C(=O)N2[C@H]3CC[C@@H]2[C@H](N)C3)cc2nc(-c3cc4ccc([C@@H](C)NC(=O)N5CC6C(C5)C6(F)F)nc4n3CC3CC3)c(C)n12", "note": "(some centres unmarked) [Example 209, ~{N}-[(1~{R})-1-[2-[7-[(1~{R},2~{R},4~{S})-2-amino-7-azabicyclo[2.2.1]heptane-7-carbonyl]-5-methoxy-3-methylimidazo [1,2-a]pyridin-2-yl]-1-(cyclopropylmethyl)pyrrolo [2,3-b]pyridin-6-yl]ethyl]-6,6-difluoro-3-azabicyclo[3.1.0]hexane-3-carboxamide]", "pIC50": 7.42}
{"smiles": "COc1cc(C(=O)N2[C@H]3CC[C@@H]2[C@H](N)C3)cc2nc(-c3cc4ccc(Oc5ccccc5)nc4n3CC3CC3)c(C)n12", "note": "[Example 628, [(1~{R},2~{R},4~{S})-2-amino-7-azabicyclo [2.2.1]heptan-7-yl]-[2-[1-(cyclopropylmethyl)-6-phenoxypyrrolo[2,3-b]pyridin-2-yl]-5-methoxy-3-methylimidazo[1,2-a]pyridin-7-yl]methanone]", "pIC50": 6.26}
